Reference: ChEMBL document CHEMBL3137667, “[Drug-induced liver injury; fourteenth updated edition of the bibliographic database of liver injuries and related drugs]” (Gastroenterol Clin Biol, 2004)

Columns and labels:
[1] = Highest frequency of moderate liver toxicity observed during clinical trials, expressed as a percentage. [column '% BIOL' in source]; details: human
[2] = Highest frequency of acute liver toxicity observed during clinical trials, expressed as a percentage. [column '% AIGUE' in source]; details: human
[3] = human, serum
[4] = human, serum; remark: listed apart in the source
[5] = human
[6] = human; remark: listed apart in the source
[7] = human; remark: listed apart in the source
[8] = human, serum, 4383 h
[9] = human; remark: listed apart in the source
[10] = human; remark: listed apart in the source
[11] = human; remark: listed apart in the source
[12] = human; remark: listed apart in the source
[13] = human; remark: listed apart in the source
[14] = human; remark: listed apart in the source
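For Hepatotoxicity (association with vascular disease) in this document: count of indexed literature references reporting vascular liver injury in humans, e.g. peliosis hepatitis, hepatic veno-occlusive disease or Budd-Chiari syndrome.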
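For Hepatotoxicity (benign tumour) in this document: value is a count of indexed literature references citing a benign tumour confirmed by histopathology.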
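For Hepatotoxicity (choleostasis) in this document: human cholestatic liver injury, shown by histopathology or by peak ALT or AST elevation over alkaline phosphatase ratio below 2, value counts indexed literature reports.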
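For Hepatotoxicity (chronic liver disease) in this document: chronic liver injury confirmed by histopathology or persistently raised serum aminotransferase activity beyond 6 months, value given as the count of indexed literature references.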
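For Hepatotoxicity (cirrhosis) in this document: value is a count of indexed literature references reporting cirrhosis confirmed by histopathology.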
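For Hepatotoxicity (cytolytic) in this document: human cytolytic liver injury, shown by histopathology or by a ratio above 5 of peak ALT or AST elevation to alkaline phosphatase elevation, value counts indexed references.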
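For Hepatotoxicity (granulomatous hepatitis) in this document: value is a count of indexed literature references reporting granulomatous liver disease confirmed by histopathology.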
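For Hepatotoxicity (malignant tumour) in this document: malignant tumour confirmed by histopathology, value gives the count of indexed literature references reporting it.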
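For Hepatotoxicity (severe hepatitis) in this document: human clinical data: severe hepatitis, meaning potentially life-threatening liver failure or clinically observed cases, the value counts how many indexed literature references report it.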
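For Hepatotoxicity (steatosis) in this document: steatosis confirmed by histopathology, value is the count of indexed references.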

| Structure (SMILES) | Hepatotoxicity (moderate) [1] [%] | Hepatotoxicity (acute) [2] [%] | Hepatotoxicity (moderate) [3] | Hepatotoxicity (acute) [4] | Hepatotoxicity (cytolytic) [5] | Hepatotoxicity (choleostasis) [6] | Hepatotoxicity (severe hepatitis) [7] | Hepatotoxicity (chronic liver disease) [8] | Hepatotoxicity (cirrhosis) [9] | Hepatotoxicity (granulomatous hepatitis) [10] | Hepatotoxicity (association with vascular disease) [11] | Hepatotoxicity (steatosis) [12] | Hepatotoxicity (malignant tumour) [13] | Hepatotoxicity (benign tumour) [14] |
| --- | --- | --- | --- | --- | --- | --- | --- | --- | --- | --- | --- | --- | --- | --- |
| O=C(O[C@@H]1C[C@@H]2C[C@H]3C[C@H](C1)N2CC3=O)c1c[nH]c2ccccc12 [DOLASETRON] | 6.7 | 0 | 1 | 0 | 0 | 0 | 0 | 0 | 0 | 0 | 0 | 0 | 0 | 0 |
| COc1cc2nc(N3CCN(C(=O)C4COc5ccccc5O4)CC3)nc(N)c2cc1OC (configuration not stated) [DOXAZOSIN] | 2.9 | 0 | 2 | 0 | 0 | 0 | 0 | 0 | 0 | 0 | 0 | 0 | 0 | 0 |
| CC/C(=C(/c1ccc(OCCN(C)C)cc1)c1cccc(O)c1)c1ccccc1 [DROLOXIFENE] | 6.6 | 0 | 4 | 0 | 0 | 0 | 0 | 0 | 0 | 0 | 0 | 0 | 0 | 0 |
| CCC(Cc1cnc2nc(N)nc(N)c2n1)c1ccc(C(=O)N[C@@H](CCC(=O)O)C(=O)O)cc1 (some centres not stated) [EDATREXATE] | 30 | 3.2 | 8 | 2 | 2 | 0 | 0 | 0 | 0 | 0 | 0 | 0 | 0 | 0 |
| NCCCC(N)(C(=O)O)C(F)F (configuration not stated) [EFLORNITHINE] | 0 | 0 | 1 | 0 | 0 | 0 | 0 | 0 | 0 | 0 | 0 | 0 | 0 | 0 |
| COc1ccc(C(=O)Nc2ccccc2CCC2CCCCN2C)cc1 (configuration not stated) [ENCAINIDE] | 0 | 0 | 0 | 1 | 0 | 0 | 0 | 0 | 0 | 0 | 0 | 0 | 0 | 0 |
| CSc1ccc(C(=O)c2[nH]c(=O)[nH]c2C)cc1 [ENOXIMONE] | 6 | 0 | 3 | 0 | 0 | 0 | 0 | 0 | 0 | 0 | 0 | 0 | 0 | 0 |
| CN1C[C@H](C(=O)N[C@]2(C)O[C@@]3(O)[C@@H]4CCCN4C(=O)[C@H](Cc4ccccc4)N3C2=O)C=C2c3cccc4[nH]cc(c34)C[C@H]21 [ERGOTAMINE] | 35.7 | 0 | 1 | 0 | 0 | 0 | 0 | 0 | 0 | 0 | 0 | 0 | 0 | 0 |
